Assay results taken from patent US8946405B2, “Controlled release from solid supports” (Prolynx LLC, priority 2010, dated 2015).

Experiments:
[1] = Hydrolysis of carbamate in 50% human serum; assay type: in vitro ADME; details: after 1 week at 37° C.
Excerpt: In general, compared to C—H, a) electron withdrawing groups at R^1 increase the rate; b) alkyl groups at R^5 increase the rate; and c) aryl moieties at R^5 decrease the rate.

[2] = Release of Nε-2,4-dinitrophenyl-L-lysine from DNP-Lys carbamates (β-elimination), HPLC; assay type: physicochemical; details: after 5 days at 37° C. and pH 7.4
Procedure: A series of linker scaffolds having a range of functional groups as potential pKa modulators (substituted aromatics, ketones, nitriles, sulfones) were designed, prepared and linked via carbamate bonds to Ne-2,4-dinitrophenyl-L-lysine (Ne-DNP-Lys) for evaluation of release rates. DNP-Lys was chosen as the released moiety as is water soluble and is a strong chromophore to permit HPLC-UV analysis.
The rates of release of Nε-2,4-dinitrophenyl-L-lysine from these compounds were determined at pH 7.4 or pH 8.3, 37° C., by HPLC analysis. Kinetic analyses of the release reactions were performed by HPLC (C18; linear MeOH/water+0.5% HOAc gradient) using a UV/vis monitor at 350 nm. The areas under the Lys(DNP) (“P”) and starting material (“S”) peaks were integrated to determine extent of reaction (“R”) as R=P/(S+P). Reaction rates were calculated from the slope the line obtained by linear regression analysis of a plot of ln(1-R) versus time.

O=C(N[C@@H](CCCCNc1ccc([N+](=O)[O-])cc1[N+](=O)[O-])C(=O)O)OCc1ccccc1 [O-benzyl-N—(Nε-2,4-dinitrophenyl-L-lysine)-carbamate]
hydrolysis in 50% human serum [1]: no detectable hydrolysis
cleavage (estimated detection limit) [2]: < 0.25%
release of Nε-2,4-dinitrophenyl-L-lysine [2]: no observable release
